Data published in ChEMBL document CHEMBL1201862, “PubChem BioAssay data set” (2004).
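Briefly, cells in 96-well plates were exposed to five compound concentrations for 48 h, and endpoints were estimated by linear interpolation. At the GI50, growth is halved.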 Calls of active or inactive are those of the source. Rule as the data show it: active = GI50 up to about 1.1 µM and inactive = higher.

What was measured:
Experiment in all cases: NCI anticancer screen, dose series, 48 h
Hs-578T = test system: Hs-578T
EKVX = test system: EKVX
MCF7 = test system: MCF7
PC-3 = test system: PC-3
ACHN = test system: ACHN
A498 = test system: A498
NCI-H460 = test system: NCI-H460
T47D = test system: T47D
HCT-15 = test system: HCT-15
BT-549 = test system: BT-549
DU-145 = test system: DU-145
MDA-MB-435 = test system: MDA-MB-435
MDA-MB-231 = test system: MDA-MB-231
SR = test system: SR
MOLT-4 = test system: MOLT-4
NCI-H522 = test system: NCI-H522

| SMILES | GI50 (Hs-578T) | GI50 (EKVX) | GI50 (MCF7) | GI50 (PC-3) | GI50 (ACHN) | GI50 (A498) | GI50 (NCI-H460) | GI50 (T47D) | GI50 (HCT-15) [µM] | GI50 (BT-549) | GI50 (DU-145) | GI50 (MDA-MB-435) | GI50 (MDA-MB-231) | GI50 (SR) | GI50 (MOLT-4) | GI50 (NCI-H522) |
| --- | --- | --- | --- | --- | --- | --- | --- | --- | --- | --- | --- | --- | --- | --- | --- | --- |
| c1nc2nc[nH]c(SSc3[nH]cnc4ncnc3-4)c-2n1 | 5.89 µM (inactive) | 88.3 µM (inactive) | 0.136 µM (active) | 1.23 µM (inactive) | 3.21 µM (inactive) | 14.4 µM (inactive) | 2.65 µM (inactive) | 2.64 µM (inactive) | 0.925 | 14.1 µM (inactive) |  |  |  |  |  |  |
| CC1CN=C(Nc2cccc(C(F)(F)F)c2)S1 (stereo unspecified) | 66.2 µM (inactive) | 34.1 µM (inactive) | 44.7 µM (inactive) |  | > 100 µM (inactive) | 42 µM (inactive) | 52.8 µM (inactive) | 54 µM (inactive) | 36.1 | 80 µM (inactive) | 70.8 µM (inactive) | 53.1 µM (inactive) | 28.1 µM (inactive) | 21.7 µM (inactive) | 25.4 µM (inactive) | 42.4 µM (inactive) |
| CC(C)(C)[Si](C)(C)OCCOCn1cc(F)c(=O)[nH]c1=O | > 100 µM (inactive) | > 100 µM (inactive) | > 100 µM (inactive) | > 100 µM (inactive) | > 100 µM (inactive) | > 100 µM (inactive) | > 100 µM (inactive) | 69 µM (inactive) | > 100 | > 100 µM (inactive) | 36.5 µM (inactive) | > 100 µM (inactive) |  | > 100 µM (inactive) | > 100 µM (inactive) | > 100 µM (inactive) |
| COc1ccc(N2C(=O)CSC2c2c[nH]c3ccccc23)cc1 (stereo unspecified) |  | > 100 µM (inactive) | 70.1 µM (inactive) | 24.7 µM (inactive) |  |  | 32.4 µM (inactive) | > 100 µM (inactive) | 70.3 | 85.1 µM (inactive) | 51.8 µM (inactive) | 41.5 µM (inactive) | 72.9 µM (inactive) | 43 µM (inactive) | 33 µM (inactive) | 24.5 µM (inactive) |
| S=C(N/N=C(/c1ccccc1)c1ccccn1)Nc1cccc(Cl)c1 | 1.52 µM (inactive) | 0.0513 µM (active) | 0.091 µM (active) |  | 0.225 µM (active) | 2.24 µM (inactive) | 0.316 µM (active) | 0.00369 µM (active) |  | 1.05 µM (active) | 1.15 µM (inactive) | 0.802 µM (active) | < 0.0202 µM (active) | < 0.026 µM (active) | < 0.0297 µM (active) |  |
| CN1C(=O)[C@@H]2[C@@H]3c4ccccc4N[C@@H]3c3[nH]c4ccccc4c3[C@@H]2C1=O | 28.3 µM (inactive) | 27.1 µM (inactive) | 22.4 µM (inactive) | 17.4 µM (inactive) | 18.5 µM (inactive) | 25.4 µM (inactive) | 15.3 µM (inactive) |  | 18.8 | 18.7 µM (inactive) | 41.7 µM (inactive) | 23.3 µM (inactive) | 21 µM (inactive) | 15.8 µM (inactive) | 19.1 µM (inactive) |  |
| COc1ccccc1NC(=O)/C(Cc1nc2ccc([N+](=O)[O-])cc2nc1O)=N\NC(=O)C[N+](C)(C)C | > 100 µM (inactive) | 78 µM (inactive) | 72.8 µM (inactive) | > 100 µM (inactive) | > 100 µM (inactive) |  | 38.1 µM (inactive) |  | 40.7 | > 100 µM (inactive) | > 100 µM (inactive) | 20 µM (inactive) | > 100 µM (inactive) | 1.44 µM (inactive) | 16.1 µM (inactive) | 28.3 µM (inactive) |
| Cc1cccc(C)c1NC(=S)N/C=C(\C#N)C(N)=O | > 100 µM (inactive) | > 100 µM (inactive) | > 100 µM (inactive) | > 100 µM (inactive) | > 100 µM (inactive) |  | > 100 µM (inactive) |  | > 100 |  | > 100 µM (inactive) | > 100 µM (inactive) | > 100 µM (inactive) |  | > 100 µM (inactive) | > 100 µM (inactive) |
